For 19 compounds, hKv1.5 % inh., inhibition and hKv1.3 % inh. results are on record in patent US8372840B2, “Potassium channel blockers” (Xention Limited, priority 2008, dated 2013).

T1 sequence (P22001 whole entry): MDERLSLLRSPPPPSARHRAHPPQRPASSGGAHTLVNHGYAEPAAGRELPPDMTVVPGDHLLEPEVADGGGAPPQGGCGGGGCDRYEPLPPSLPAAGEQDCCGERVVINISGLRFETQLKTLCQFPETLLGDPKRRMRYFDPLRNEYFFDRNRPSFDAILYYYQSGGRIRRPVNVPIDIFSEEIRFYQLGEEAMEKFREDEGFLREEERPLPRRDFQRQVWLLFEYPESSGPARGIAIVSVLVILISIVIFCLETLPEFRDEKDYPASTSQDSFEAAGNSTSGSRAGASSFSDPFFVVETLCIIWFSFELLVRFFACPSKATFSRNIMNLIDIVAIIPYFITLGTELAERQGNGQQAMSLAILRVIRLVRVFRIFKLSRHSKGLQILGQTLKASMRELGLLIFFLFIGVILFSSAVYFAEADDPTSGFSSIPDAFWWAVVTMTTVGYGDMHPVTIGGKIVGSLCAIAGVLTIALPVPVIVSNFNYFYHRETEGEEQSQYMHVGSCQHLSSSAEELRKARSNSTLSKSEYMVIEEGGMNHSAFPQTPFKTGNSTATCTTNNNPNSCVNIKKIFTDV

The target of one experiment is hKv1.5 (Homo sapiens, UniProt P22460). As to the kind of experiment: Kv1.5 Autopatch Electrophysiology (whole cell patch-clamp). The class given is cell-based. As to conditions: compound 1 μM, step to 0 mV for 1000 ms, total charge, room temperature (22-24° C.). How it is done: The external bathing solution contained (in mM): 150 NaCl, 10 KCl, […], 3 MgCl2, 1 CaCl2, 10 HEPES, pH 7.4. Patch pipettes were filled with an electrode solution of composition (in mM): 160 KCl, 0.5 MgCl2, 10 HEPES, 1 EGTA, pH 7.4 with KOH.
Sequence of hKv1.5 (P22460 whole entry): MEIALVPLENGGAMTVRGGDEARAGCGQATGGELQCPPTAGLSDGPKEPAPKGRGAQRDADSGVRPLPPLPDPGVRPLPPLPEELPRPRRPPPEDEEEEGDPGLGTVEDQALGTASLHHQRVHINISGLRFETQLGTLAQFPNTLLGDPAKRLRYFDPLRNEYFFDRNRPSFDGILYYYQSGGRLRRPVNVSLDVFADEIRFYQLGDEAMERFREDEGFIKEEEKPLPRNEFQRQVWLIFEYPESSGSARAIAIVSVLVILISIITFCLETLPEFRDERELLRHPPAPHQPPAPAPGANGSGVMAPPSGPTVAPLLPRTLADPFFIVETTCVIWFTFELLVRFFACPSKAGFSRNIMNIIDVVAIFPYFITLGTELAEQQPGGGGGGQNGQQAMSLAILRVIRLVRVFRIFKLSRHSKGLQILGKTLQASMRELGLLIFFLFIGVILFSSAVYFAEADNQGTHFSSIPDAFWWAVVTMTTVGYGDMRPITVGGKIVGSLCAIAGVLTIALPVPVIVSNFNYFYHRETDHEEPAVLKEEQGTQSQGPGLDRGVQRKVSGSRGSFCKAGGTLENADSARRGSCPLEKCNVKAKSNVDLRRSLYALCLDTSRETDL
Compounds were dissolved in DMSO (100%) and made up in the external bather at a concentration of 1 μM. All experiments were conducted at room temperature (22-24° C.).
A cell suspension (10 ml), with a density of 100,000 cells/ml, was aliquoted into a 15 ml centrifuge tube and transferred to an incubator (37° C., 5% CO2) for approximately one hour before use. Following 60 min incubation, a tube was taken and centrifuged at 1000 rpm for 4 mins at room temperature. 9.5 ml supernatant was thence discarded, leaving a cell pellet at the bottom of the tube. The pellet was then resuspended using 100 μl of cold (4° C.), filtered (0.22 μm), 0.2% BSA/bather solution (0.02 g BSA/10 ml bather). The bottom of the tube was manually agitated gently until the solution became cloudy with cells. The 100 μl cell resuspension solution was then stored on the bench at 4° C. (using a Peltier-based temperature control device) until used.
A length of capillary glass (1B150E-4, WPI) was dipped into the cell suspension solution, such that ˜3 cm column of fluid was taken up by capillary action. A Ag/AgCl wire was dropped into the non-dipped end of the capillary also. The outside of the solution-filled end of the capillary was then dried and the capillary was loaded into the AutoPatch™
(§1) Borosilicate glass patch pipettes (from 1.5 mm OD, thin-walled filamented, GC150-TF capillary glass, Harvard) were pulled using a DMZ pipette puller (Zeitz Instruments), and were back-filled using the internal pipette solution, being careful that no bubbles remain at the tip or in the body of the pipette. Patch pipettes typically had resistances of 2.3-3.5 MΩ. Once filled, the pipette tip and a proportion of the shaft (˜15 mm) were dipped into Sigmacote (Sigma). The recording pipette was then loaded into the AutoPatch™. Automated patch-clamping was initiated by the operator, but thereafter AutoPatch.exe continued the experiment providing that pre-set conditions and criteria were satisfied.
Whole cell patch-clamp recordings were made using the AutoPatch™ rig, which incorporated an EPC9 amplifier (HEKA, Germany) under control of Pulse software (v8.54, HEKA, Germany), a motion controller with 2 translators (Newport, UK), valve controller (VF1) and a c-level suction device all at room temperature (22-24° C.). This equipment was completely under the control of AutoPatch.exe and operator intervention was only made when there was a requirement to refill the drug reservoirs or to prevent the loss of a cell due to a technical error. Cells with an Rseries greater than 18 MΩ were discounted from the experiment.
Qualification stages prior to perfusion and drug application ensured that the observed current met the criteria for the experiment. Only those cells with an IK>500 pA were used for experiments. Cells were continuously perfused with external solution at a flow rate of 1.8-2 ml/minute. […] Online analysis of the hKv1.5 current during the application of compounds was performed by the AutoPatch™ software. Voltage-step protocols and analysis of data was performed as described for conventional electrophysiology.
Electrophysiology voltage-step protocols and analysis of data was performed as follows. Data was sampled at 5 kHz, and filtered with a −3 dB bandwidth of 2.5 kHz. Cells were held at a voltage of −80 mV. Currents were evoked to a voltage step for 1000 ms in duration at 0 mV every 5 s. Currents were analysed using Pulsefit software (v8.54, HEKA, Germany), with the total charge measured during the whole of the voltage step. All other plots were produced using Igor Pro (WaveMetrics).
Background: In patch-clamp work, channel activity is measured electrically.
The compound “2-Methyl-2H-pyrazole-3-sulfonic acid (4-chloro-benzyl)-[3-(2-oxo-pyrrolidin-1-yl)-phenyl]-amide [Example 26]” registered a hKv1.5 % inh. of 43%.

The compound “N-Benzyl-3-cyano-N-[3-(2-oxo-pyrrolidin-1-yl)-phenyl]-benzenesulfonamide [Example 22]” came in with a hKv1.5 % inh. of 82%. Take “Pyridine-3-sulfonic acid (4-chloro-benzyl)-(3-morpholin-4-yl-phenyl)-amide [Example 35]”: the hKv1.5 % inh. was 84%.

The compound “3-Oxo-3,4-dihydro-2H-benzo[1,4]oxazine-6-sulfonic acid (4-chloro-benzyl)-[3-(2-oxo-pyrrolidin-1-yl)-phenyl]-amide [Example 29]” returned a hKv1.5 % inh. of 72%.

Regarding “N-(4-Chloro-benzyl)-3-cyano-N-(3-morpholin-4-yl-phenyl)-benzenesulfonamide [Example 30]”, the hKv1.5 % inh. worked out at 97%. The same measure, in the same setting: as for “1-Methyl-1H-pyrazole-4-sulfonic acid benzyl-[3-(2-oxo-pyrrolidin-1-yl)-phenyl]-amide [Example 24]”, the figure is 41%.

Staying with this experiment, now noted: compound 1 μM, step to 0 mV for 1000 ms, total charge, room temperature (22-24° C.), read-out: hKv1.5 % inh.
As to `Cn1cc(S(=O)(=O)N(Cc2ccc(Cl)cc2)c2cccc(N3CCOCC3)c2)cn1` [Example 33, 1-Methyl-1H-pyrazole-4-sulfonic acid (4-chloro-benzyl)-(3-morpholin-4-yl-phenyl)-amide], the inhibition at 1 µM stood at 58%. Turning to `O=C1COc2ccc(S(=O)(=O)N(Cc3ccc(Cl)cc3)c3cccc(N4CCOCC4)c3)cc2N1` [Example 34, 3-Oxo-3,4-dihydro-2H-benzo[1,4]oxazine-6-sulfonic acid (4-chloro-benzyl)-(3-morpholin-4-yl-phenyl)-amide], the inhibition at 1 µM was 68%.

`Cn1nccc1S(=O)(=O)N(Cc1ccc(Cl)cc1)c1cccc(N2CCOCC2)c1` [Example 31, 2-Methyl-2H-pyrazole-3-sulfonic acid (4-chloro-benzyl)-(3-morpholin-4-yl-phenyl)-amide]: the inhibition at 1 µM stood at 47%. Take `Cc1nc(S(=O)(=O)N(Cc2ccc(Cl)cc2)c2cccc(N3CCCC3=O)c2)cn1C` [Example 25, 1,2-Dimethyl-1H-imidazole-4-sulfonic acid (4-chloro-benzyl)-[3-(2-oxo-pyrrolidin-1-yl)-phenyl]-amide]: the inhibition at 1 µM was 39%.

Regarding `CN1CCOc2cc(S(=O)(=O)N(Cc3ccc(Cl)cc3)c3cccc(N4CCCC4=O)c3)ccc21` [Example 27, 4-Methyl-3,4-dihydro-2H-benzo[1,4]oxazine-7-sulfonic acid (4-chloro-benzyl)-[3-(2-oxo-pyrrolidin-1-yl)-phenyl]-amide], the inhibition at 1 µM amounted to 84%. As to `CN1CCOc2cc(S(=O)(=O)N(Cc3ccccc3)c3cccc(N4CCOCC4)c3)ccc21` [Example 21, 4-Methyl-3,4-dihydro-2H-benzo[1,4]oxazine-7-sulfonic acid benzyl-(3-morpholin-4-yl-phenyl)-amide], the inhibition at 1 µM came out at 72%. In the case of `O=C1COc2ccc(S(=O)(=O)N(Cc3ccccc3)c3cccc(N4CCCC4=O)c3)cc2N1` [Example 17, 3-Oxo-3,4-dihydro-2H-benzo[1,4]oxazine-6-sulfonic acid benzyl-[3-(2-oxo-pyrrolidin-1-yl)-phenyl]-amide], the inhibition at 1 µM turned out to be 45%. On the same count and under the same terms, with `CN1CCOc2cc(S(=O)(=O)N(Cc3ccc(Cl)cc3)c3cccc(N4CCOCC4)c3)ccc21` [Example 32, 4-Methyl-3,4-dihydro-2H-benzo[1,4]oxazine-7-sulfonic acid (4-chloro-benzyl)-(3-morpholin-4-yl-phenyl)-amide] the figure was 64%; with `N#Cc1cccc(S(=O)(=O)N(Cc2ccccc2)c2cccc(N3CCOCC3)c2)c1` [Example 20, N-Benzyl-3-cyano-N-(3-morpholin-4-yl-phenyl)-benzenesulfonamide], 90%; with `Cn1cc(S(=O)(=O)N(Cc2ccc(Cl)cc2)c2cccc(N3CCCC3=O)c2)cn1` [Example 28, 1-Methyl-1H-pyrazole-4-sulfonic acid (4-chloro-benzyl)-[3-(2-oxo-pyrrolidin-1-yl)-phenyl]-amide], 49%.

A further experiment concerns the target T1, human Kv1.3 (Homo sapiens, UniProt P22001).
T1 construct: expressed in transfected cells; host or cells: stably transfected cells grown in medium for CHO cells
The experiment can be described thus: Kv1.3 Autopatch Electrophysiology (whole cell patch-clamp, stably transfected CHO cells). Particulars: CHO, compound 1 μM, step to +30 mV for 500 ms, inhibition of total charge relative to control, room temperature, read-out: hKv1.3 % inh. The class given is cell-based. The method, then: Cells stably transfected with cDNA for human Kv1.3 (in pcDNA3.1) were grown in Ex-cell 302 serum-free medium for CHO cells, supplemented with 10 μl/ml [100×] glutamine, 500 μg/ml G418 ([…]), and 1% HT supplement (50×, hypoxanthine and thymidine). Compounds were tested on these cells using the AutoPatch technology in whole cell mode.
The external bathing solution contained (in mM): 150 NaCl, 10 KCl, 1 MgCl2, 3 CaCl2, 10 HEPES, pH 7.4 with NaOH. Patch pipettes were filled with an electrode solution of composition (in mM): 100 K-Gluconate, 20 KCl, 1 MgCl2, 1 CaCl2, 10 HEPES, 11 EGTA, 5 ATP-Na2, 2 Glutathione pH 7.2 with KOH.
Compounds were dissolved in DMSO (100%) and made up in the external bather at a concentration of 1 μM immediately prior to use. All experiments were conducted at room temperature.
A cell suspension (10 ml), with a density of 6×10^6 cells, was aliquoted into a 15 ml centrifuge tube and stored at 4° C. before use. Prior to use a tube was taken and centrifuged at 1000 rpm for 4 mins at room temperature. The supernatant was then discarded, leaving a cell pellet at the bottom of the tube. The pellet was then resuspended using 1 ml of cold (4° C.), filtered (0.22 μm), 0.05% BSA/bather solution (0.05 g BSA/100 ml bather). The bottom of the tube was manually agitated followed by gentle tituration. The cell suspension was then placed in the AutoPatch™ temperature controlled cell-hotel at 14° C. and regularly titurated.
as §1, with “A length of Teflon capillary tubing was dipped into the cell suspension solution, and a column of fluid was taken up by negative pressure. The column of fluid was in electrically connectivity with a Ag/AgCl reference electrode. Borosilicate” for “Borosilicate”, “remained” for “remain”, “2.5-3.5” for “2.3-3.5”, “pipettes were placed in a multiwell array and mounted on” for “pipette was then loaded into”, “AutoPatch™ machine.” for “AutoPatch™.”, “patch-clamping and drug-application” for “patch-clamping”
Whole cell patch-clamp recordings were made using the AutoPatch™ rig, which incorporated an EPC9 or EPC10 amplifier (HEKA, Germany) under control of Pulse software (v8.54 or v8.76, HEKA, Germany), a cell applicator, automated drug application system (DAS), valve controller (VF1) and a suction device all at room temperature. This equipment was completely under the control of AutoPatch.exe and operator intervention was only made when there was a requirement to refill the bather reservoirs or to prevent the loss of a cell due to a technical error.
Qualification stages prior to perfusion and drug application ensured that the observed current met the criteria for the experiment. Cells were continuously perfused with external solution at a flow rate of ˜2 ml/minute.
Electrophysiology voltage-step protocols and analysis of data was performed as follows. Data were sampled at 5 kHz, and filtered with a −3 dB bandwidth of 2.5 kHz. Cells were held at a voltage of −80 mV. Currents were evoked by a voltage step to +30 mV for 500 ms in duration applied every 15 s. Online analysis of the hKv1.3 current during the application of compounds was performed by the Pulse (v8.54 or v8.76, HEKA, Germany), Excel (Microsoft, USA) and AutoPatch™ software, with the total charge measured during the whole of voltage step Inhibition of charge movement in the presence of drug was calculated relative to control.
`Cn1ccc(S(=O)(=O)N(Cc2ccccc2)c2cccc(N3CCNC3=O)c2)n1` [Example 43, 1-Methyl-1H-pyrazole-3-sulfonic acid benzyl-[3-(2-oxo-imidazolidin-1-yl)-phenyl]-amide]: the inhibition at 1 µM was found to be 72%.

The same experiment, now with this note: compound 1 μM, step to +30 mV for 500 ms, inhibition of total charge relative to control, room temperature.
In turn, “1-Methyl-1H-pyrazole-3-sulfonic acid (4-chloro-benzyl)-[4-fluoro-3-(2-oxo-pyrrolidin-1-yl)-phenyl]-amide [Example 37]” had a hKv1.3 % inh. of 53%. The compound “1-Methyl-1H-imidazole-4-sulfonic acid benzyl-[3-(4-phenyl-piperazin-1-yl)-phenyl]-amide [Example 13]” displayed a hKv1.3 % inh. of 41%.
